Measured values from patent US10203322B2, “Method for identifying subjects with increased risk of ST-segment elevation myocardial infarction (STEMI) and identifying subjects likely to respond to particular treatments” (Vanderbilt University, priority 2017, dated 2019).

How the values were obtained:
[1] = system: platelets from an individual with the low threshold phenotype; settings: platelets of low threshold (potentiating) phenotype treated with the EP3 antagonist; ref [6], FIG. 2; cited from earlier work
[2] = system: platelets (platelet-rich plasma); test: Platelet phenotyping: platelet aggregation in platelet-rich plasma by light transmission aggregometry, U46,619 with or without PGE2; assay type: cell-based, human; settings: PGE2 100 nmol/L preincubated with PRP, sub-maximal U46,619, aggregation recorded 6 min, n=86 (FIG. 1)
Method: Measurements of platelet aggregation in PRP were made using light transmission aggregometry using a Chrono-Log lumi-aggregometer (Model 460VS). The aggregometer was calibrated for each sample to read 0-10% light transmission for PRP and 90-100% light transmission for PPP. Aliquots of PRP were placed in siliconized glass cuvettes containing Teflon-coated stir bars and incubated for 2 minutes at 37° C. PRP was preincubated with or without 100 nM PGE2 for 10-20 s before adding U46,619 at various concentrations. Samples were stirred at 800 rpm throughout a 6 minute aggregation run. Experiments were completed within 2 hours of phlebotomy. Percentage aggregation was recorded with Aggrolink software (Chrono-Log) and exported to GraphPad Prism for analysis. For each subject, multiple doses of U46,619 agonist were used to construct a dose response curve according to methods described previously; each U46,619 dose was tested with and without PGE2.
In order to describe the phenotypic observation in a quantitative rather than just qualitative format a continuous variable was constructed as follows: for each dose of U46,619, the aggregation value obtained at the end of the 6 min run in the presence of PGE2 was subtracted from the value obtained without PGE2. The largest difference was reported as the maximum PGE2 effect (maximum difference). […]

SMILES: Cc1cn(Cc2ccc(Cl)cc2Cl)c2c(/C=C/C(=O)NS(=O)(=O)c3cc(Cl)c(Cl)s3)cc(F)cc12 [DG-041]
- shift of PGE2 response phenotype [1]: the phenotype shifts to high threshold

SMILES: CCCCC[C@H](O)/C=C/[C@H]1[C@H](O)CC(=O)[C@@H]1C/C=C\CCCC(=O)O [PGE2, Prostaglandin E2]
- individuals in whom PGE2 decreases the threshold of platelet activation by the thromboxane agonist U46,619 (inhibitory phenotype) [2]: 56 % of individuals
- individuals in whom PGE2 increases the threshold of platelet activation by the thromboxane agonist U46,619 (potentiating phenotype) [2]: 44 % of individuals
